Laboratory results: ChEMBL document CHEMBL4418287, “Lysyl oxidase-like 2 inhibitors and uses thereof” (2018)
Active and inactive are the calls of the source.

Columns and labels:
Format in all cases: functional, organism-based
Mus musculus [1] = assay: Antifibrotic activity in C57BL/6 mouse model of bleomycin-induced lung fibrosis assessed as reduction in collagen level in lung at 60 mg/kg, po pre-treated 1 hr to 1 day before bleomycin injection and measured after 14 to 28 days by hydroxyproline assay
Mus musculus [2] = assay: Antifibrotic activity in C57BL/6 mouse model of bleomycin-induced lung fibrosis assessed as reduction in cross linked collagen level in lung at 60 mg/kg, po pre-treated 1 hr to 1 day before bleomycin injection and measured after 14 to 28 days by Masson's trichrome staining based assay
Mus musculus [3] = assay: Antifibrotic activity in C57BL/6 mouse model of bleomycin-induced lung fibrosis assessed as reduction in cross linked collagen level in lung at 60 mg/kg, po pre-treated 1 hr to 1 day before bleomycin injection and measured after 14 to 28 days by Picro-Sirius staining based assay
Mus musculus [4] = assay: Antifibrotic activity in C57BL/6 mouse model of bleomycin-induced lung fibrosis assessed as reduction in alpha smooth muscle actin level in lung at 60 mg/kg, po pre-treated 1 hr to 1 day before bleomycin injection and measured after 14 to 28 days by immunohistochemistry analysis
Mus musculus [5] = assay: Antifibrotic activity in C57BL/6 mouse model of bleomycin-induced lung fibrosis assessed as reduction in hydroxyproline in lung homogenates at 60 mg/kg, po pre-treated 1 hr to 1 day before bleomycin injection and measured after 14 to 28 days by chloramine T and Erlich's solution based assay

Measured: Activity

NCc1cc(Oc2cccc(C(=O)NCc3ccnc(Cl)c3)c2)ncn1
active: Mus musculus [1] | Mus musculus [2] | Mus musculus [3] | Mus musculus [4] | Mus musculus [5]

NCc1cc(Oc2cccc(C(=O)N3CCN(c4ccccc4)CC3)c2)ncn1
active: Mus musculus [1] | Mus musculus [2] | Mus musculus [3] | Mus musculus [4] | Mus musculus [5]
